# Test results published in patent publication US7008905B2, “Method of combating undesired plant growth on cereals” (BASF Aktiengesellschaft, priority 2000, dated 2006).
# What was measured:
# Format in all cases: in vivo
# Alopecurus myosuroides = assay: Pre-emergence test, weed control; conditions: 3 weeks after treatment, rating 0-100 (100=death), Table 3
# Protocol: (§1) The pre-emergence tests involve spraying a liquid formulation of the compound onto the soil in which the seeds of the plant species mentioned above has recently been sown.
# (§2) The soil used in the tests is a prepared horticultural loam. The formulations used in the tests are prepared from solutions of the test compounds in acetone containing 0.4% by weight of an alkylphenol/ethylene oxide condensate available under the trade mark TRITON X-155.
# (§3) In these tests untreated sown soil is used as control. The herbicidal effects of the test compounds are assessed visually three weeks after spraying the soil and are recorded an a 0 to 100 scale. A rating 0 indicates growth as untreated control, a rating 100 indicates death. An increase of 10 unit an the linear scale approximates to a 10% increase in the level of effect. The results of the assessment are set out in Tables 1 to 4.
# Apera spica-venti = assay: Pre-emergence test, weed control; conditions: 3 weeks after treatment, rating 0-100 (100=death), Table 3
# Protocol: as §1, §2, §3
# Galium aparine = assay: Pre-emergence test, weed control; conditions: 3 weeks after treatment, rating 0-100 (100=death), Table 3
# Protocol: as §1, §2, §3
# Lamium purpureum = assay: Pre-emergence test, weed control; conditions: 3 weeks after treatment, rating 0-100 (100=death), Table 3
# Protocol: as §1, §2, §3
# Lolium perenne = assay: Pre-emergence test, weed control; conditions: 3 weeks after treatment, rating 0-100 (100=death), Table 3
# Protocol: as §1, §2, §3
# Matricaria inodora = assay: Pre-emergence test, weed control; conditions: 3 weeks after treatment, rating 0-100 (100=death), Table 3
# Protocol: as §1, §2, §3
# Poa annua = assay: Pre-emergence test, weed control; conditions: 3 weeks after treatment, rating 0-100 (100=death), Table 3
# Protocol: as §1, §2, §3
# Setaria viridis = assay: Pre-emergence test, weed control; conditions: 3 weeks after treatment, rating 0-100 (100=death), Table 3
# Protocol: as §1, §2, §3
# Stellaria media = assay: Pre-emergence test, weed control; conditions: 3 weeks after treatment, rating 0-100 (100=death), Table 3
# Protocol: as §1, §2, §3
# Veronica persica = assay: Pre-emergence test, weed control; conditions: 3 weeks after treatment, rating 0-100 (100=death), Table 3
# Protocol: as §1, §2, §3
# PAPRH = assay: Pre-emergence test, weed control; conditions: 3 weeks after treatment, rating 0-100 (100=death), Table 3
# Protocol: as §1, §2
# as §3, with “These acetone solutions are diluted with water and the resulting formulations applied at dosage levels corresponding to 15 g, 30 g, 60 g, 120 g or 240 g of active material per hectare in a volume equivalent to 900 liters per hectare. In” for “In”
# VIOAR = assay: Pre-emergence test, weed control; conditions: 3 weeks after treatment, rating 0-100 (100=death), Table 3
# Protocol: as §1, §2
# as §3, with “These acetone solutions are diluted with water and the resulting formulations applied at dosage levels corresponding to 15 g, 30 g, 60 g, 120 g or 240 g of active material per hectare in a volume equivalent to 900 liters per hectare. In” for “In”
# [1] = system: Triticum aestivum variety “Kanzler”; assay: Pre-emergence test, selectivity; conditions: 3 weeks after treatment, rating 0-100 (100=death), Table 4
# Protocol: as §1, §2
# as §3, with “These acetone solutions are diluted with water and the resulting formulations applied at dosage levels corresponding to 15 g, 30 g, 60 g, 120 g or 240 g of active material per hectare in a volume equivalent to 900 liters per hectare. In” for “In”
# [2] = system: Triticum aestivum variety “Monopol”; assay: Pre-emergence test, selectivity; conditions: 3 weeks after treatment, rating 0-100 (100=death), Table 4
# Protocol: as §1, §2
# as §3, with “These acetone solutions are diluted with water and the resulting formulations applied at dosage levels corresponding to 15 g, 30 g, 60 g, 120 g or 240 g of active material per hectare in a volume equivalent to 900 liters per hectare. In” for “In”
# wheat = assay: Pre-emergence test, tolerance in wheat; conditions: in vivo
# Protocol: as §1, §2
# as §3, with “These acetone solutions are diluted with water and the resulting formulations applied at dosage levels corresponding to 15 g, 30 g, 60 g, 120 g or 240 g of active material per hectare in a volume equivalent to 900 liters per hectare. In” for “In”
smiles,measurement,setting,value
Cc1cnc(-c2ccc(C(F)(F)F)cc2)nc1Oc1ccnc(Cl)c1 [REF-4],ALOMY weed control rating,Alopecurus myosuroides; 0.030 kg/ha,20
same,ALOMY weed control rating,Alopecurus myosuroides; 0.060 kg/ha,92
same,ALOMY weed control rating,Alopecurus myosuroides; 0.120 kg/ha,93
same,ALOMY weed control rating,Alopecurus myosuroides; 0.240 kg/ha,98
same,APESV weed control rating,Apera spica-venti; 0.030 kg/ha,100
same,APESV weed control rating,Apera spica-venti; 0.060 kg/ha,100
same,APESV weed control rating,Apera spica-venti; 0.120 kg/ha,100
same,APESV weed control rating,Apera spica-venti; 0.240 kg/ha,100
same,GALAP weed control rating,Galium aparine; 0.240 kg/ha,90
same,LAMPU weed control rating,Lamium purpureum; 0.030 kg/ha,97
same,LAMPU weed control rating,Lamium purpureum; 0.060 kg/ha,100
same,LAMPU weed control rating,Lamium purpureum; 0.120 kg/ha,100
same,LAMPU weed control rating,Lamium purpureum; 0.240 kg/ha,100
same,LOLPE weed control rating,Lolium perenne; 0.030 kg/ha,98
same,LOLPE weed control rating,Lolium perenne; 0.060 kg/ha,98
same,LOLPE weed control rating,Lolium perenne; 0.120 kg/ha,100
same,LOLPE weed control rating,Lolium perenne; 0.240 kg/ha,100
same,MATIN weed control rating,Matricaria inodora; 0.030 kg/ha,100
same,MATIN weed control rating,Matricaria inodora; 0.060 kg/ha,100
same,MATIN weed control rating,Matricaria inodora; 0.120 kg/ha,100
same,MATIN weed control rating,Matricaria inodora; 0.240 kg/ha,100
same,POAAN weed control rating,Poa annua; 0.030 kg/ha,100
same,POAAN weed control rating,Poa annua; 0.060 kg/ha,100
same,POAAN weed control rating,Poa annua; 0.120 kg/ha,100
same,POAAN weed control rating,Poa annua; 0.240 kg/ha,100
same,SETVI weed control rating,Setaria viridis; 0.030 kg/ha,65
same,SETVI weed control rating,Setaria viridis; 0.060 kg/ha,80
same,SETVI weed control rating,Setaria viridis; 0.120 kg/ha,100
same,SETVI weed control rating,Setaria viridis; 0.240 kg/ha,100
same,STEME weed control rating,Stellaria media; 0.030 kg/ha,92
same,STEME weed control rating,Stellaria media; 0.060 kg/ha,100
same,STEME weed control rating,Stellaria media; 0.120 kg/ha,100
same,STEME weed control rating,Stellaria media; 0.240 kg/ha,100
same,VERPE weed control rating,Veronica persica; 0.030 kg/ha,98
same,VERPE weed control rating,Veronica persica; 0.060 kg/ha,100
same,VERPE weed control rating,Veronica persica; 0.120 kg/ha,100
same,VERPE weed control rating,Veronica persica; 0.240 kg/ha,100
same,PAPRH weed control rating,PAPRH; 0.030 kg/ha,100
same,PAPRH weed control rating,PAPRH; 0.060 kg/ha,100
same,PAPRH weed control rating,PAPRH; 0.120 kg/ha,100
same,PAPRH weed control rating,PAPRH; 0.240 kg/ha,100
same,VIOAR weed control rating,VIOAR; 0.030 kg/ha,99
same,VIOAR weed control rating,VIOAR; 0.060 kg/ha,100
same,VIOAR weed control rating,VIOAR; 0.120 kg/ha,100
same,VIOAR weed control rating,VIOAR; 0.240 kg/ha,100
same,TRZAWK rating (Selectivity),[1]; 0.030 kg/ha,10
same,TRZAWK rating (Selectivity),[1]; 0.060 kg/ha,15
same,TRZAWK rating (Selectivity),[1]; 0.120 kg/ha,22
same,TRZAWK rating (Selectivity),[1]; 0.240 kg/ha,22
same,TRZAWM rating (Selectivity),[2]; 0.030 kg/ha,15
same,TRZAWM rating (Selectivity),[2]; 0.060 kg/ha,8
same,TRZAWM rating (Selectivity),[2]; 0.120 kg/ha,22
same,TRZAWM rating (Selectivity),[2]; 0.240 kg/ha,35
same,maximum tolerated dose in wheat / dose at which sufficiently selective in wheat,wheat,60 g/ha
Cc1nc(-c2ccc(C(F)(F)F)cc2)nc(Oc2ccnc(Cl)c2)c1C [REF-5],ALOMY weed control rating,Alopecurus myosuroides; 0.030 kg/ha,5
same,ALOMY weed control rating,Alopecurus myosuroides; 0.060 kg/ha,15
same,ALOMY weed control rating,Alopecurus myosuroides; 0.120 kg/ha,30
same,ALOMY weed control rating,Alopecurus myosuroides; 0.240 kg/ha,35
same,APESV weed control rating,Apera spica-venti; 0.030 kg/ha,100
same,APESV weed control rating,Apera spica-venti; 0.060 kg/ha,100
same,APESV weed control rating,Apera spica-venti; 0.120 kg/ha,100
same,APESV weed control rating,Apera spica-venti; 0.240 kg/ha,100
same,GALAP weed control rating,Galium aparine; 0.030 kg/ha,2
same,GALAP weed control rating,Galium aparine; 0.060 kg/ha,5
same,GALAP weed control rating,Galium aparine; 0.120 kg/ha,50
same,LAMPU weed control rating,Lamium purpureum; 0.030 kg/ha,0
same,LAMPU weed control rating,Lamium purpureum; 0.060 kg/ha,20
same,LAMPU weed control rating,Lamium purpureum; 0.120 kg/ha,55
same,LAMPU weed control rating,Lamium purpureum; 0.240 kg/ha,100
same,LOLPE weed control rating,Lolium perenne; 0.030 kg/ha,40
same,LOLPE weed control rating,Lolium perenne; 0.060 kg/ha,90
same,LOLPE weed control rating,Lolium perenne; 0.120 kg/ha,98
same,LOLPE weed control rating,Lolium perenne; 0.240 kg/ha,99
same,MATIN weed control rating,Matricaria inodora; 0.030 kg/ha,85
same,MATIN weed control rating,Matricaria inodora; 0.060 kg/ha,100
same,MATIN weed control rating,Matricaria inodora; 0.120 kg/ha,100
same,MATIN weed control rating,Matricaria inodora; 0.240 kg/ha,100
same,POAAN weed control rating,Poa annua; 0.030 kg/ha,92
same,POAAN weed control rating,Poa annua; 0.060 kg/ha,100
same,POAAN weed control rating,Poa annua; 0.120 kg/ha,100
same,POAAN weed control rating,Poa annua; 0.240 kg/ha,100
same,SETVI weed control rating,Setaria viridis; 0.030 kg/ha,20
same,SETVI weed control rating,Setaria viridis; 0.060 kg/ha,50
same,SETVI weed control rating,Setaria viridis; 0.120 kg/ha,95
same,SETVI weed control rating,Setaria viridis; 0.240 kg/ha,100
same,STEME weed control rating,Stellaria media; 0.030 kg/ha,10
same,STEME weed control rating,Stellaria media; 0.060 kg/ha,25
same,STEME weed control rating,Stellaria media; 0.120 kg/ha,35
same,STEME weed control rating,Stellaria media; 0.240 kg/ha,70
same,VERPE weed control rating,Veronica persica; 0.030 kg/ha,55
same,VERPE weed control rating,Veronica persica; 0.060 kg/ha,93
same,VERPE weed control rating,Veronica persica; 0.120 kg/ha,95
same,VERPE weed control rating,Veronica persica; 0.240 kg/ha,100
same,PAPRH weed control rating,PAPRH; 0.030 kg/ha,85
same,PAPRH weed control rating,PAPRH; 0.060 kg/ha,95
same,PAPRH weed control rating,PAPRH; 0.120 kg/ha,100
same,PAPRH weed control rating,PAPRH; 0.240 kg/ha,100
same,VIOAR weed control rating,VIOAR; 0.030 kg/ha,96
same,VIOAR weed control rating,VIOAR; 0.060 kg/ha,97
same,VIOAR weed control rating,VIOAR; 0.120 kg/ha,98
same,VIOAR weed control rating,VIOAR; 0.240 kg/ha,99
same,TRZAWK rating (Selectivity),[1]; 0.120 kg/ha,1
same,TRZAWK rating (Selectivity),[1]; 0.240 kg/ha,8
same,TRZAWM rating (Selectivity),[2]; 0.120 kg/ha,1
same,TRZAWM rating (Selectivity),[2]; 0.240 kg/ha,8
same,maximum tolerated dose in wheat / dose at which sufficiently selective in wheat,wheat,240 g/ha
